In patent US20240108623A1, “METHODS OF TREATING CANCER WITH POZIOTINIB” (BOARD OF REGENTS, THE UNIVERSITY OF TEXAS SYSTEM, priority 2021, published 2024):

Experiments:
Type in all cases: cell-based
[1] = test system: exon 20 loop insertion mutations; assay: Ba/F3 drug screening, mutant/WT IC50 by class of EGFR TKI; conditions: Ba/F3 cells expressing exon 20 loop insertion mutations
Protocol: Ba/F3 cell generation, drug screening, and IC50 approximations. Ba/F3 cells were obtained as a gift from Dr. Gordon Mills (MD Anderson Cancer Center), and maintained in RPMI (Sigma) containing 10% FBS, 1% penicillin/streptomycin, and 10 ng/ml recombinant mIL-3 (R&D Biosystems). To establish stable Ba/F3 cell lines, Ba/F3 cells were transduced with retroviruses containing mutant EGFR plasmids for 12-24 hours. Retroviruses were generated using Lipofectamine 2000 (Invitrogen) transfections of Phoenix 293T-ampho cells (Orbigen) with pBabe-Puro based vectors listed below in Table 6. Vectors were generated by GeneScript or Bioinnovatise using parental vectors from Addgene listed below in Table 6.
After 48-72 hours of transduction, 2 μg/ml puromycin (Invitrogen) was added to Ba/F3 cell lines in complete RPMI. To select for EGFR positive cell lines, cells were stained with PE-EGFR (Biolegend) and sorted by FACS. […] Plates were incubated for a minimum of 10 minutes, and bioluminescence was determined using a FLUOstar OPTIMA plate reader (BMG LABTECH). […] Statistical differences between groups were determined by ANOVA as described in the figure legends.
Heatmap generation and spearman correlations of groups. […] Hierarchical clustering was determined by Euclidean distance between Mut/WT ratios. […]

EGFR G719A = target: T1, EGFR G719A (Homo sapiens, UniProt P00533, G719A); assay: Ba/F3 cell drug screening, Cell Titer Glo; conditions: Ba/F3 cells expressing EGFR G719A; 72 hours
T1 construct: expressed in transfected cells; host or cells: Ba/F3 (retroviral transduction, pBabe-Puro based vectors)
Outline: (§1)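 Mutant EGFR-driven Ba/F3 cells, maintained in 1 ng/ml EGF, are treated 72 h with a seven-concentration TKI series. Viability is read by CellTiter-Glo, and IC50 derived by variable-slope regression.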

EGFR Ex19del = target: T2, EGFR Ex19del (Homo sapiens, UniProt P00533, DEL746-750); assay: Ba/F3 cell drug screening, Cell Titer Glo; conditions: Ba/F3 cells expressing EGFR Ex19del; 72 hours
T2 construct: expressed in transfected cells; host or cells: Ba/F3 (retroviral, pBabe-Puro based vector)
Outline: as §1

## C=CC(=O)N1CCC(Oc2cc3c(Nc4ccc(Cl)c(Cl)c4F)ncnc3cc2OC)CC1 [Poziotinib]
[1]
  sensitivity of Ex20ins mutations in vitro: sensitive
EGFR G719A
  Response of Cells Comprising PACC EGFR Mutations to Second-Generation TKIs: 0.02575
EGFR Ex19del
  Response of Cells Comprising Classical-Like EGFR Mutations to Second-Generation TKIs: 0.07456
